# Test results from ChEMBL document CHEMBL1201862, “PubChem BioAssay data set” (2004).
#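 48-hour exposure; five concentrations; linearly interpolated endpoints. Abbreviation: GI50, concentration required for 50% inhibition of growth.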 The source made the active and inactive calls. Rule as the data show it: active = GI50 up to about 1.1 µM and inactive = higher.
# Legend:
# Experiment in all cases: NCI anticancer screen, dose series, 48 h
# HOP-62 = test system: HOP-62
# MOLT-4 = test system: MOLT-4
# SK-OV-3 = test system: SK-OV-3
# COLO 205 = test system: COLO 205
# SF-268 = test system: SF-268
# KM12 = test system: KM12
# SK-MEL-5 = test system: SK-MEL-5
# RPMI-8226 = test system: RPMI-8226
# K562 = test system: K562
# HOP-92 = test system: HOP-92
# UACC-62 = test system: UACC-62
# LOX IMVI = test system: LOX IMVI
# MDA-MB-231 = test system: MDA-MB-231
# SNB-75 = test system: SNB-75
# UACC-257 = test system: UACC-257
# M14 = test system: M14
# NCI-H226 = test system: NCI-H226
# HL-60 = test system: HL-60
# NCI-H460 = test system: NCI-H460
# MDA-N = test system: MDA-N
SMILES,GI50 (HOP-62),GI50 (MOLT-4),GI50 (SK-OV-3),GI50 (COLO 205),GI50 (SF-268),GI50 (KM12),GI50 (SK-MEL-5),GI50 (RPMI-8226),GI50 (K562),GI50 (HOP-92),GI50 (UACC-62),GI50 (LOX IMVI),GI50 (MDA-MB-231),GI50 (SNB-75),GI50 (UACC-257),GI50 (M14),GI50 (NCI-H226),GI50 (HL-60),GI50 (NCI-H460),GI50 (MDA-N)
O=c1nc(Oc2c(F)c(F)c(F)c(F)c2F)ccn1C1OC(CO)C(O)C1O (centres undefined),> 100 µM (inactive),43.9 µM (inactive),> 100 µM (inactive),> 100 µM (inactive),> 100 µM (inactive),> 100 µM (inactive),> 100 µM (inactive),> 100 µM (inactive),> 100 µM (inactive),> 100 µM (inactive),> 100 µM (inactive),> 100 µM (inactive),> 100 µM (inactive),> 100 µM (inactive),> 100 µM (inactive),> 100 µM (inactive),,,,
Cc1[nH]nc(C(=O)N/N=C/c2cccs2)c1/N=N\N(C)C,17 µM (inactive),3.75 µM (inactive),19.8 µM (inactive),11.9 µM (inactive),9.4 µM (inactive),24.1 µM (inactive),19.6 µM (inactive),18.3 µM (inactive),3.9 µM (inactive),16.3 µM (inactive),14 µM (inactive),4.3 µM (inactive),23.1 µM (inactive),2.89 µM (inactive),26.7 µM (inactive),24.7 µM (inactive),23.1 µM (inactive),1.99 µM (inactive),3.43 µM (inactive),
CC(C)=CCC[C@@H](C)c1c2nc3ccccc3sc-2c(C)c(=O)c1O,4.36 µM (inactive),2.32 µM (inactive),7.74 µM (inactive),18.8 µM (inactive),3.99 µM (inactive),4.6 µM (inactive),3.1 µM (inactive),4.11 µM (inactive),8.22 µM (inactive),18.9 µM (inactive),4.99 µM (inactive),4.94 µM (inactive),15.1 µM (inactive),5.53 µM (inactive),14.3 µM (inactive),4.75 µM (inactive),3.74 µM (inactive),1.51 µM (inactive),2.22 µM (inactive),
CCN(CC)c1c(C(=O)/C=C/c2ccc(F)cc2)c(-c2ccccc2)nn(C)c1=O,11.6 µM (inactive),2.23 µM (inactive),11.9 µM (inactive),4.25 µM (inactive),8.79 µM (inactive),4.85 µM (inactive),8.89 µM (inactive),2.94 µM (inactive),12.4 µM (inactive),3.85 µM (inactive),10.3 µM (inactive),7.35 µM (inactive),,4.51 µM (inactive),6.89 µM (inactive),12.1 µM (inactive),14.7 µM (inactive),2.9 µM (inactive),4.49 µM (inactive),
Clc1ccc(Cl)c(NNc2cc(Cl)ccc2Cl)c1,> 10 µM (inactive),> 10 µM (inactive),5.79 µM (inactive),> 10 µM (inactive),4.69 µM (inactive),> 10 µM (inactive),2.76 µM (inactive),4.3 µM (inactive),> 10 µM (inactive),,3.88 µM (inactive),3.57 µM (inactive),> 10 µM (inactive),,> 10 µM (inactive),> 10 µM (inactive),> 10 µM (inactive),> 10 µM (inactive),3.66 µM (inactive),5.57 µM (inactive)
CCOC(=O)[C@@]1(C)CC(O)C(=O)N1C (some centres undefined),> 100 µM (inactive),> 100 µM (inactive),> 100 µM (inactive),> 100 µM (inactive),> 100 µM (inactive),> 100 µM (inactive),> 100 µM (inactive),> 100 µM (inactive),,> 100 µM (inactive),> 100 µM (inactive),> 100 µM (inactive),> 100 µM (inactive),,> 100 µM (inactive),> 100 µM (inactive),> 100 µM (inactive),> 100 µM (inactive),,
O=C1c2cc([N+](=O)[O-])cnc2S(=O)(=O)N1c1ccc(Oc2ccccc2)cc1,> 100 µM (inactive),33 µM (inactive),> 100 µM (inactive),> 100 µM (inactive),,> 100 µM (inactive),,> 100 µM (inactive),> 100 µM (inactive),> 100 µM (inactive),> 100 µM (inactive),> 100 µM (inactive),> 100 µM (inactive),> 100 µM (inactive),,> 100 µM (inactive),> 100 µM (inactive),> 100 µM (inactive),> 100 µM (inactive),
COc1cc2c(cc1OCCN1CCN(CCOc3cc4c(cc3OC)C(=O)N3CCC[C@H]3C=N4)CC1)N=C[C@@H]1CCCN1C2=O,30.5 µM (inactive),2.06 µM (inactive),> 100 µM (inactive),24 µM (inactive),13.1 µM (inactive),30.8 µM (inactive),17.8 µM (inactive),1.56 µM (inactive),15 µM (inactive),0.906 µM (active),14.3 µM (inactive),,17.6 µM (inactive),> 76.9 µM (inactive),> 56.6 µM (inactive),25.1 µM (inactive),19.4 µM (inactive),4.3 µM (inactive),13.5 µM (inactive),
Cc1[nH]c2ncn3nc(C(Cl)(Cl)Cl)nc3c2c1Cc1ccccc1,> 100 µM (inactive),> 100 µM (inactive),> 100 µM (inactive),> 100 µM (inactive),> 100 µM (inactive),> 100 µM (inactive),> 100 µM (inactive),> 100 µM (inactive),,,> 100 µM (inactive),,> 100 µM (inactive),> 100 µM (inactive),> 100 µM (inactive),> 100 µM (inactive),> 100 µM (inactive),> 100 µM (inactive),> 100 µM (inactive),> 100 µM (inactive)
NCCCCNCCCNC(=O)c1csc(-c2nc(CCN)sc2Cl)n1,> 100 µM (inactive),> 100 µM (inactive),> 100 µM (inactive),> 100 µM (inactive),> 100 µM (inactive),> 100 µM (inactive),> 100 µM (inactive),> 100 µM (inactive),> 100 µM (inactive),8.85 µM (inactive),> 100 µM (inactive),,,> 100 µM (inactive),> 100 µM (inactive),> 100 µM (inactive),> 100 µM (inactive),> 100 µM (inactive),> 100 µM (inactive),> 100 µM (inactive)
O=C(O)CCC/N=C(\C(=N\CCCC(=O)O)c1ccccc1)c1ccccc1,> 100 µM (inactive),> 100 µM (inactive),> 100 µM (inactive),> 100 µM (inactive),> 100 µM (inactive),> 100 µM (inactive),,> 100 µM (inactive),> 100 µM (inactive),,> 100 µM (inactive),> 100 µM (inactive),> 100 µM (inactive),> 100 µM (inactive),> 100 µM (inactive),> 100 µM (inactive),> 100 µM (inactive),,> 100 µM (inactive),> 100 µM (inactive)
COC(=O)/C(=N\O)C(C(=O)C=C(C)C)C(=O)C(=O)Nc1ccccc1C (centres undefined),> 100 µM (inactive),> 100 µM (inactive),> 100 µM (inactive),> 100 µM (inactive),> 100 µM (inactive),> 100 µM (inactive),> 100 µM (inactive),> 100 µM (inactive),> 100 µM (inactive),> 100 µM (inactive),> 100 µM (inactive),> 100 µM (inactive),,> 100 µM (inactive),> 100 µM (inactive),> 100 µM (inactive),> 100 µM (inactive),> 100 µM (inactive),> 100 µM (inactive),
Oc1c(/N=N/c2ccccc2)c2ccccc2c2ccc3ccccc3c12,43.6 µM (inactive),40.6 µM (inactive),> 100 µM (inactive),> 100 µM (inactive),> 100 µM (inactive),> 100 µM (inactive),> 100 µM (inactive),45.6 µM (inactive),35.3 µM (inactive),38.2 µM (inactive),66.1 µM (inactive),,78.3 µM (inactive),64.1 µM (inactive),> 100 µM (inactive),57.5 µM (inactive),> 100 µM (inactive),47.3 µM (inactive),> 100 µM (inactive),
CSc1ccc2c(cc1=O)[C@@H](NC(=O)c1ccc(Cl)cc1)CCc1cc(O)c(O)c(O)c1-2,57.4 µM (inactive),26.3 µM (inactive),> 100 µM (inactive),62.5 µM (inactive),> 100 µM (inactive),40.4 µM (inactive),50.4 µM (inactive),23.3 µM (inactive),18.2 µM (inactive),> 100 µM (inactive),22.5 µM (inactive),18.6 µM (inactive),,27.7 µM (inactive),> 100 µM (inactive),34.7 µM (inactive),> 100 µM (inactive),27.5 µM (inactive),43.5 µM (inactive),
Cc1c(O)c(=O)ccn1C1OC(CO)C(O)C1O (centres undefined),> 100 µM (inactive),67.1 µM (inactive),> 100 µM (inactive),> 100 µM (inactive),> 100 µM (inactive),> 100 µM (inactive),> 100 µM (inactive),> 100 µM (inactive),50.4 µM (inactive),> 100 µM (inactive),96.2 µM (inactive),56.2 µM (inactive),,> 100 µM (inactive),> 100 µM (inactive),> 100 µM (inactive),> 100 µM (inactive),17.4 µM (inactive),59.4 µM (inactive),
